The values that follow come from patent US12594258B2, “Inhibitors of MHC-I Nef downmodulation for treating HIV” (priority 2019, dated 2026).

The test system of series [1] is CD4+ T cells. The series is described as follows: Cell cycle analysis of CD4+ T cells. Type of series: cell-based, human. Particulars: 0.5 nM.
The subject of series [2] is HIV-infected primary CD4+ T cells. Description: Flow cytometric CTL killing assay. Format: cell-based, human. From the text:
CTL clones were isolated by limiting dilution from HIV-1- infected individuals. […] The CTL clones were maintained in culture with periodic re-stimulation as previously described except for the following changes; CTL clones were stimulated with anti-CD3 clone 12F6 (NIH AIDS Reagent Program) and cultured with IL-2 (NIH AIDS Reagent Program, Hoffman-La Roche). Peripheral blood mononuclear feeder cells were isolated from leukopaks (New York Blood Center) and X-irradiated with […] in R10 medium. Irradiations were performed using a Kimtron IC 225(Kimtron Medical) at a dose rate of approximately 2 Gy/min in the University of Michigan Comprehensive Cancer Center Experimental Irradiation Core (Ann Arbor, Mich.). CTL clones 115B15 and 161JXA14 both recognize HIV gag amino acids 77-85; SLYNTVATL presented by MHC-I HLA-A2 (71).
CTL elimination assays were performed as previously described with the following modifications: 72 hours post-infection primary CD4^+ T cells were stained with CellTracker Green (Fisher, c7025) according to manufacturer's protocol and treated with 0.5 nM CMA or solvent control for 24 hours. 50,000 target cells were used per condition, and following the 4 hours of co-culture, the cells were stained with DAPI as a viability dye in addition to anti-PLAP and BB7.2 antibodies. […]

The subject of series [3] is CEM-A2 cells. Description: Lysotracker Red and Nef activity in CEM-A2 cells. Particulars: 1.25 nM. Format: cell-based, human. The protocol:
Cells were treated with plecomacrolides at a density of 1×10^6 cells/mL for 24 hours, then treated with 100 nM LysoTracker Red DND-99 (Fisher, L7528) in PBS at a density of 1×10^6 cells/mL for 1 hour at 37° C., washed twice in PBS, and fixed in 2% PFA before flow cytometric analysis on a BioRad Ze5 flow cytometer.
To test this directly, CEM-A2 cells transduced with an adenoviral vector expressing Nef were used. This system has been used to study the formation of the AP-1:Nef:MHC-I complex under conditions where ammonium chloride prevents lysosomal degradation. Higher concentrations of CMA were required for reversal of Nef activity in CEM cells. […] This is functionally similar to 0.5 nM CMA treatment in CD4^+ T cells.

For series [4], the system named is ARF-1:AP-1:Nef:MHC-I complex. The series is described as follows: Differential scanning fluorimetry (DSF) thermal stability assay. Particulars: 1-hour incubation, compared to solvent control. Type of series: binding. From the text: The His6- and GST-tagged AP-1 core, mouse AP1M1 (157-423) (referred as μ1-CTD), human Arf1 (17-181)-Q71L, human MHC-I (338-365)-NL4-3 Nef, HIV-1 NL4-3 Nef constructs and protein purification were previously described. For GST pull down assay, codon-optimized human MHC-I (338-365) was subcloned into pGST parallel2 vector using BamHI/Xhol sites, fused an N-terminal GST tag and a TEV cleavage site. PCR encoding HIV-1 Nef or SlVsmm Nef fused with GFP was subcloned into LIC 2BT vector (Macrolab), expressed as a TEV-cleavable N-terminal His6 tag and C-terminal uncleavable GFP tag.
Recombinant AP-1 core was mixed with Arf1-GTP and MHC-I-Nef at the molar ratio of 1:4:6, then incubated at 4° C. overnight. […]
DSF assays were performed using a Stratagene Mx3000P RT-PCR (Stratagene, La Jolla, CA) to monitor protein unfolding by the florescence increasing of SYPRO Orang (Invitrogen, Carlsbad, Calif.). […] The Fluorescent intensity was measured using the SYBR green filter over the temperature range of 25 to 90° C. in 1 degree/min increments. After subtracting fluorescence from DMSO control reaction without protein, the average fluorescent intensities were plotted as a function of temperature. […] The fluorescence intensity (before post-peak region) was fitted to Boltzmann equation to obtain melting temperature (Tm).
In general terms: DSF heats the sample and reads unfolding from a dye or from intrinsic fluorescence.

Regarding `C/C=C/[C@H]1O[C@@](O)([C@@H](C)[C@H](O)[C@H](C)[C@H]2OC(=O)/C(OC)=C/C(C)=C/[C@@H](C)[C@@H](O)[C@@H](CC)[C@@H](O)[C@H](C)C/C(C)=C/C=C/[C@@H]2OC)C[C@@H](O[C@H]2C[C@@H](O)[C@H](OC(N)=O)[C@@H](C)O2)[C@@H]1C` [CMA, concanamycin A], in series [1], the “decrease in cells in G2/M” value was “not statistically significant” and the “increase in the proportion of cells in S phase compared to solvent control” value was found to be 1.15 fold. Further, in series [2] (0.5 nM, 24 hours), the “CTL-mediated elimination of PLAP+ cells infected with Nef-competent virus” value is given as “efficiently eliminated by CTLs”. Further, the “clearance of SL9 peptide-pulsed target cells by anti-HIV CTLs” value in series [2] (in the presence of 0.5 nM) was “No change in the clearance”. Moreover, in series [3], the “Nef inhibition versus intracellular acidification” value was “inhibited Nef without significantly altering intracellular acidification”. Further, the “change in Tm of complex components” value in series [4] is listed as “No significant changes in Tm”.
